Structure (SMILES)	melting point [°C]
CC(=O)Oc1cc(S(=O)(=O)Oc2ccc(C(=O)c3c(Cc4ccccc4)oc(C)c3C)cc2C2CCCC2)ccc1C(=O)O	55 to 90
Nc1nnc(-c2ccc3ncn(-c4ccccc4Cl)c3c2)o1	254 to 255
COC(=O)c1cn(Cc2ccc3cc(OCc4ccccc4)ccc3c2)cc1-c1ccccc1	109 to 110
CCCCCCCCC#CCCCCCCCCCCCC(=O)O	58
COc1ccc(CC2CNC(=O)N2)cc1OC1CCCC1 (stereo not drawn)	107 to 111
Oc1ccccc1Cc1ccc(Cl)nn1	132
O=[N+]([O-])N=C1N(COCCBr)CCN1Cc1ccc(Cl)nc1	90 to 92
Cn1c(C(O)CO)cnc1[N+](=O)[O-] (stereo not drawn)	119 to 121
COCc1cc2ccccc2oc1=Nc1ccccc1	64 to 65
CCOC(=O)COc1cc(-n2nc(C)n(C(F)F)c2=O)c(Cl)cc1Cl	118 to 119
Cc1ccc2[nH]c(=O)c(C#N)c(N3CCN(C(=O)c4cccs4)CC3)c2c1	269
Cc1cc(-c2cccnc2)n2ncnc2n1	183 to 185
CCOC(=O)C(NC(=O)c1ccc(C)c(F)c1)C(=O)OCC	102 to 103
CCOc1cc(C(Cl)(Cl)Cl)cc(OC)n1	36 to 38
COc1cc(N)c(Cl)cc1C(C)=O	114 to 116
CC(=O)NC1Cc2ccc(CCN3CCN(c4nsc5ccccc45)CC3)cc2C1(C)C (stereo not drawn)	62 to 72
CC(C)c1nnnn1-c1cc(C(=O)O)cc(-c2ccc(Cl)cn2)c1	180 to 181
CCCCCOc1ccc(C(=O)c2cccc3ccccc23)c2ccccc12	72 to 75
CCc1nc2c(cnn2CC)c(NC2CCOCC2)c1CNC(=O)c1cccc(C(=O)NCc2ccc(OC)c(-c3cccc(CN4CCN(C)CC4)c3)c2)c1	117 to 119
Cc1oc(C=Cc2ccccc2)nc1CCl	108 to 109
Cc1c(OCC(F)(F)F)ccnc1CSc1nc2cc(OC(F)F)ccc2n1N	179 to 180
CC(C)(C)OC(=O)c1c(Cl)cc(N2C(=O)N3CCCC3(Cc3ccc(Br)cc3)C2=O)cc1Cl (stereo not drawn)	109 to 110
CC(=O)C(C#N)=Cc1ccccc1	83 to 84
COc1ccc(COc2ccc3[nH]c4c([N+](=O)[O-])ccc(Cl)c4c(=O)c3c2)cc1	187 to 189
CC1(C)CCCC(N=[N+]=[N-])C(=O)N1 (stereo not drawn)	98 to 100
CCOC(=O)c1cc2c3ccccc3[nH]c(=S)n2n1	242 to 243

Structure (SMILES)	melting point [°C]
CC(C)(C)OC(=O)CCc1ccc(-c2nc(=O)c3ccccc3s2)nc1	160 to 161
CC(C)(C)NC(CO)c1cc(Cl)c(N)c(C(F)(F)F)c1 (stereo not drawn)	85 to 90
NC(=O)c1ccc(C(c2ccccc2)(c2ccccc2)c2ccccc2)cn1	239 to 240
O=C(C1CCCN1)N1CCN(c2nc(N3CCCC3)nc(N3CCCC3)n2)CC1 (stereo not drawn)	143
CN1C(=O)Cn2c(nn(-c3ccccc3)c2=O)-c2cc(Cl)ccc21	174 to 175
Fc1ccc(Cn2c(NC3CCN(CCNC(=S)N4CCCCC4)CC3)nc3ccccc32)cc1	176
O=C(O)CC(=O)NCc1cc(Br)cc2[nH]c(=O)c(=O)[nH]c12	> 300
CCCCNC(=O)NCCCn1c(CCCC)nc2c(N)nc3ccccc3c21	186
N#Cc1ccc(C2=Nc3ccccc3C(=O)C2=Cc2ccncc2)cc1	154 to 156
CN(C)c1ccc(-c2cc(=S)ss2)nn1	265
COc1ccc(NC(=O)c2ccc(F)c(F)c2)cc1NS(=O)(=O)c1ccc(C#N)cc1	255 to 257
O=c1cc(Br)ccn1C1CC1	91 to 94
COC(=O)c1ccc(OC)c(OC)c1N	66 to 67
Cc1cccc(C)c1-c1cc2cnc(N)nc2n(C)c1=N	197 to 198
CCOC(=O)c1nc2n(n1)-c1ccc(Cl)cc1C(c1ccccc1)=NC2	137 to 138
CCC(CC)C(=O)C1=C(O)c2cc(OC)c(OC)c(OC)c2C(O)(c2ccc(OC)c(OC)c2)C1C(=O)OC (stereo not drawn)	156 to 157
C[C@@H](C(=O)O)N(C)C(=O)c1cc(C(F)(F)F)cc([N+](=O)[O-])c1N	136
COc1cc(/C=C/c2ccc(C(C)C)cc2)cc(OC)c1OC	74 to 75
CC(C)(CCCOc1ccccc1)C(=O)O	151 to 152
CCCCCCCCCCOc1ccc(Cc2cnc(N)nc2N)cc1OC	169
COc1ccc(S(=O)(=O)Nc2ccccc2Cl)cc1OC1CCCC1	113 to 115
CS(=O)(=O)c1ccc2c(c1)[C@@H](Oc1ccc(C#N)cc1Cl)[C@H](N1CCC[C@@H](N)C1)C2	162
COC(=O)c1cc(Nc2ccc(C)cc2)c(C(=O)OC)cc1Nc1ccc(C)cc1	205 to 207
CCC(OC1OC(COC(C)=O)C(OC(C)=O)C(OC(C)=O)C1OC(C)=O)C(=O)O (stereo not drawn)	98 to 100
S=C1Nc2ccccc2N2CCN(c3ccccc3)CCN12	202 to 206
CCCCC(=N)Nc1ccccc1N1CCOCC1	135 to 136

Structure (SMILES)	melting point [°C]
O=C(O)C1(CCc2ccc(Cl)cc2)CCN(CC2CC2)CC1	250
C=CCN1CCC23CC(=O)CCC2(O)C1Cc1cccc(OC)c13 (stereo not drawn)	166 to 167
Cn1cc(-c2cc3cccnc3[nH]2)c2cc(N)ccc21	247 to 248
N#CS/C=C\C(=O)N1CCCCC1	88 to 90
Cc1ccc(C)n1-c1ccccc1OCC(O)CNC(C)C (stereo not drawn)	73 to 75
Cc1cccc(C)c1N(CC(C)Cl)C(=O)c1ccccc1 (stereo not drawn)	106 to 109
COC(=O)Nc1nc2cc(F)c(OC(C)c3c(Cl)ccc(F)c3Cl)cc2[nH]1 (stereo not drawn)	245 to 250
O=C(NC1(Cc2ccccc2)C=CCC1)C(Cl)(Cl)Cl (stereo not drawn)	127 to 128
COC(=O)c1ccc(OCC(N)=O)c([N+](=O)[O-])c1	185 to 187
O=C(c1ccc([N+](=O)[O-])cc1)c1cc2c(c(Cl)c1Cl)OC(C(=O)O)C2 (stereo not drawn)	243 to 245
Cc1cc(C#N)ccc1-c1ccc(C=O)cc1	130
O=c1c(CCCc2ccncc2)cc2cccnc2n1-c1ccc2nsnc2c1	194 to 196
CC(=O)NCCNC(=O)Nc1ccc(-c2c[nH]c(=O)cn2)cc1	238 to 244
COc1oc2cccc(-c3ccc(O)cc3)c2c1C(C)=O	222
CC(C)(C)N1CC(c2cccc(C(F)(F)F)c2)OCC1=O (stereo not drawn)	81 to 83
O=C(c1nnc(-c2ccccc2)o1)N1CC(Oc2ccc(CN3CC(C(F)F)C3)cc2)C1	147
CSc1nc(N)c(N)c(N)n1	180 to 182
O=c1[nH]cc(C(c2ccccc2)c2ccccc2)cc1C(c1ccccc1)c1ccccc1	240
CC(=O)Nc1nc(CCc2ccc(NC(N)=S)cc2)c(Cc2ccc(S(C)(=O)=O)cc2)s1	102 to 103
COc1cccc(C(=O)NCc2cccc3c2CN(C2CCC(=O)NC2=O)C3=O)c1 (stereo not drawn)	244 to 246
CC(C)(C)OC(=O)NS(=O)(=O)c1ccc(Cl)cc1	98 to 99
C[C@@H](SCC(N)=O)[C@](O)(Cn1cncn1)c1ccc(F)cc1F	144 to 145
Cc1cccc(NC(=O)CN2CCN(c3ccccc3C#N)CC2)c1	168 to 170
COc1cccc(-c2nc3ccc(OC)cc3s2)c1	155 to 157
CC(=O)Oc1ccc2c(C)cc(=O)oc2c1CC(Br)CBr (stereo not drawn)	145 to 148
O=C(O)CNC(=O)COc1c(F)cc(CSCCNS(=O)(=O)c2ccc(Cl)cc2)cc1F	140

Structure (SMILES)	melting point [°C]
COC(=O)c1ccccc1NC(=O)c1c(-c2ccccc2)c(-c2ccc(F)cc2)c(C=O)n1C(C)C	222 to 223
O=C(O)c1cc(Cl)cc2c1CCCC2	130 to 140
Cc1ccc2cccc(OCc3c(Cl)ccc(N(C)C(=O)CNC(=O)/C=C/c4ccc(NC(=O)c5cnccn5)nc4)c3Cl)c2n1	220 to 231
CC(C(=O)O)n1ccc2c(OCc3ccccc3)cccc21 (stereo not drawn)	143 to 146
COc1cc(NC2=C(Cl)C(=O)c3ccccc3C2=O)ccc1S(=O)(=O)Nc1ccc(C)cc1	186 to 189
CC(C)OC(=O)Nc1cccc2c1C(=O)C1(O)c3ccc(C(C)C)cc3OC21O (stereo not drawn)	200 to 202
OC(C1=NCCN1)(c1ccccc1)c1cccc(Cl)n1 (stereo not drawn)	154 to 156
COCc1c(C(=O)O)ncc2[nH]c3c(c12)CCCC3	> 260
CSC1NC(=O)N(C)C(=O)N1N (stereo not drawn)	174 to 175
Cc1cc(C)c2c(c1O)C(=O)C(C)(C)C2	28 to 30
CN(C)S(=O)(=O)c1ccc(N)cc1C(F)(F)F	140 to 142
CC(C)(O)Cn1c(CO)nc2c(N)nc3cc(-c4ccc(F)c(F)c4)cnc3c21	256 to 258
CCCc1nc2c(N)nc3cc(Oc4ccc([N+](=O)[O-])cc4)ccc3c2n1CC(C)C	209 to 211
Nc1nnc(Sc2ccccc2)s1	202 to 203
C[C@H](O)CNc1cc(Oc2ccc(F)cc2F)nc2[nH]nc(-c3ccccc3Cl)c12	238
CC(C)C(C(=O)O)c1ccc(OC(F)F)c([N+](=O)[O-])c1 (stereo not drawn)	88 to 90
COc1ccc2c(c1)CCC1C2CCC2(C)C(=O)CC(C)(C(C)C)C12 (stereo not drawn)	113 to 115
COC(=O)C1CCc2c(oc3cccc(Cl)c23)C1 (stereo not drawn)	99 to 102
COc1ccc(-c2c3c(c(C)c4ccc(OC)cc24)C(=O)NC3)cc1	235 to 237
CCC1c2c(C#N)ncn2-c2cnc(Nc3ccc(C(=O)NC4CCN(C5CCN(CC(C)C)CC5)CC4)cc3OC)nc2N1C(C)C (stereo not drawn)	165 to 170
CNc1nc(-c2ccccc2)c(-c2nc(N)nc(Nc3cccc([N+](=O)[O-])c3)n2)s1	277
CCOn1nnc2ccc(C(C)n3ccnc3)cc21 (stereo not drawn)	81.1
CCOC(=S)c1cnc(Cc2ccccc2)nc1N	117 to 118
C[C@H](O)CNc1cc(OCc2ccccc2)ccc1C=O	68 to 69
C=CCOc1ccc([C@H]2CCN(C(=O)OC(C)(C)C)C[C@@H]2O)cc1 (racemic)	113

From a melting point compilation (Tetko et al.; mined from patent text by program, amines drawn as free bases though some values may be those of a salt)
